Test [1] concerns the target T1, Amine oxidase [copper-containing] 3 (Rattus norvegicus, UniProt O08590).
T1 sequence (O08590 whole entry): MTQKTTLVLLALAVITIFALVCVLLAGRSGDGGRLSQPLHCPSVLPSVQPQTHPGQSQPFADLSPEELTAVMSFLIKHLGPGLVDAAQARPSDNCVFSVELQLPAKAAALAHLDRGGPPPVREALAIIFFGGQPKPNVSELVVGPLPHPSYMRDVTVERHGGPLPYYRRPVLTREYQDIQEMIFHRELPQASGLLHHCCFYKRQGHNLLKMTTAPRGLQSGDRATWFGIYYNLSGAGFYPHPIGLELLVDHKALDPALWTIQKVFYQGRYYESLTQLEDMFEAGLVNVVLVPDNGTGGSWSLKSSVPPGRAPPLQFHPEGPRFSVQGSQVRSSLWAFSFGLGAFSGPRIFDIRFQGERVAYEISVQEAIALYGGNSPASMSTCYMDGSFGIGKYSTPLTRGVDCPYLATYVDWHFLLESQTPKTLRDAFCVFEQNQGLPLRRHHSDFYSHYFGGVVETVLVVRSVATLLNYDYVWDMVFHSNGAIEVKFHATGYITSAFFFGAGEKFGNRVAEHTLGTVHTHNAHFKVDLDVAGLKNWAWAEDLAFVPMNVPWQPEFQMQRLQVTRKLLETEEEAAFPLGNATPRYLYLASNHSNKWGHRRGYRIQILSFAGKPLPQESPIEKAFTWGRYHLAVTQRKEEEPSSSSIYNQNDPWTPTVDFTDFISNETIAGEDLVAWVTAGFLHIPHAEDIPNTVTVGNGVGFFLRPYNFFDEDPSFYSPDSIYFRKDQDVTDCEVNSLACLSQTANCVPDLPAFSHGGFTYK
As to the kind of experiment: Inhibition of rat VAP-1 expressed in CHO cells using [14C]-benzylamine as substrate preincubated for 30 mins prior to substrate addition measured after 1 hr by scintillation spectrometric analysis. It counts as cell-based.

In test [2] the target is T2, Amine oxidase [copper-containing] 3 (Homo sapiens, UniProt Q16853).
T2 sequence (Q16853 whole entry): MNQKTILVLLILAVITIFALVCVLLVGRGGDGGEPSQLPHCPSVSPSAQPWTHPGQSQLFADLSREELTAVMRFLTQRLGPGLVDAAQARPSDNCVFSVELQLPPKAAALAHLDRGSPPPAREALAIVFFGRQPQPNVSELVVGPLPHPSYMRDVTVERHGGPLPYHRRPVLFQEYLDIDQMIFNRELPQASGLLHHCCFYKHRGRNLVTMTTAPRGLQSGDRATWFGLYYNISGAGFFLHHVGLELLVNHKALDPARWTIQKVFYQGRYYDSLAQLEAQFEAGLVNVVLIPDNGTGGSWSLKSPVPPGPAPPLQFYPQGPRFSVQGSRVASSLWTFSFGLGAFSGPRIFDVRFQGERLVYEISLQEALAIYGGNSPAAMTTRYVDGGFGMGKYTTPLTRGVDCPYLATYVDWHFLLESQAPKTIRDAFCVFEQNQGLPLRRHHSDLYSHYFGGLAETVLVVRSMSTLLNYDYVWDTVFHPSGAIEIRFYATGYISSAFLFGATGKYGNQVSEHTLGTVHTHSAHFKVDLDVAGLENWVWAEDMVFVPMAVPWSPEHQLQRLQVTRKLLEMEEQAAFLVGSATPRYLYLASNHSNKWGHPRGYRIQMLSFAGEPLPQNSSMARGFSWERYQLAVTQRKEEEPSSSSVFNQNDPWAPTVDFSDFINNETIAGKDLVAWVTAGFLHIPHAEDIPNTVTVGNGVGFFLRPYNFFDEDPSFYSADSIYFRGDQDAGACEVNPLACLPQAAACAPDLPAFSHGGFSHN
As to the kind of experiment: Inhibition of human VAP-1 expressed in CHO cells using [14C]-benzylamine as substrate preincubated for 30 mins prior to substrate addition measured after 1 hr by scintillation spectrometric analysis. It counts as cell-based.

Test [3] deals with Rattus norvegicus. As to the kind of experiment: Inhibition of VAP-1 in streptozotocin-induced diabetic Sprague-Dawley rat plasma using [14C]-benzylamine as substrate at 10 mg/kg, po administered for 2 weeks after streptozotocin-challenge by scintillation spectrometric analysis. It counts as functional, organism-based. Details: dose 10 mg/kg.
For test [4], the species on record is Homo sapiens. In words: Selectivity ratio of IC50 for human recombinant MAO-B to IC50 for human VAP-1.
Test [5] concerns the target T3, Amine oxidase [flavin-containing] B (Homo sapiens, UniProt P27338).
T3 sequence (P27338 whole entry): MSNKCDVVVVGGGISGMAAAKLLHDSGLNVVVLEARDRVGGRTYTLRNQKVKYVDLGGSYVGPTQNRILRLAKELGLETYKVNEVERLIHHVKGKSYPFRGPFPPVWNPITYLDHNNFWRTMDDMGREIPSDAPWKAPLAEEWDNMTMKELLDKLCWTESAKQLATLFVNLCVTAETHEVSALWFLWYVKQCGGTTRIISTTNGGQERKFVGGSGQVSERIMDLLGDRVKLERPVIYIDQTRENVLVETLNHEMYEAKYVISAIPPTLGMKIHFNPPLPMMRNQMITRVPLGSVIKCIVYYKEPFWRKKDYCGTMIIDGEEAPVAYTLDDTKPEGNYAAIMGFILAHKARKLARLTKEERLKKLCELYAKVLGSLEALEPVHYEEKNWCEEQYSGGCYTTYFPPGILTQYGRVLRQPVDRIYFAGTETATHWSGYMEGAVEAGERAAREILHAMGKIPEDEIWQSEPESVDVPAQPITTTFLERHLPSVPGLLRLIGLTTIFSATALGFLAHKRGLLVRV
As to the kind of experiment: Inhibition of human recombinant MAO-B using benzylamine as substrate after 1 hr by fluorometric assay.

Test [6] is filed under the species Homo sapiens. In words: Selectivity ratio of IC50 for human recombinant MAO-A to IC50 for human VAP-1.
Test [7] deals with T4, Amine oxidase [flavin-containing] A (Homo sapiens, UniProt P21397).
T4 sequence (P21397 whole entry): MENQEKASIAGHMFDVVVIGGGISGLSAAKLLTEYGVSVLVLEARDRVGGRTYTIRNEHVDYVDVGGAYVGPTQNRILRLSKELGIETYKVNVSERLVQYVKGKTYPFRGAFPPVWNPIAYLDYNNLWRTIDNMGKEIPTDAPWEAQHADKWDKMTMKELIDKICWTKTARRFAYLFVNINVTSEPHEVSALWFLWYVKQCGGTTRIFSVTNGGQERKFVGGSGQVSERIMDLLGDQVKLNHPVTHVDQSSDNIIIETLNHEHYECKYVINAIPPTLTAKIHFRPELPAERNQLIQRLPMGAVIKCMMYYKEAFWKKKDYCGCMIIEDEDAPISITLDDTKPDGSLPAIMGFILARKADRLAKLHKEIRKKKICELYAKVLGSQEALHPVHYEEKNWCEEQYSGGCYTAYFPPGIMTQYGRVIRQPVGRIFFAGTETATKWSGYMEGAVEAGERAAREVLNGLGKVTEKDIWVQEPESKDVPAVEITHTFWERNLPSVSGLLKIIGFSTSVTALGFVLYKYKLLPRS
In words: Inhibition of human recombinant MAO-A using 5-hydroxytryptamine as substrate after 1 hr by fluorometric assay.

Test [8] has as its system Rattus norvegicus. As to the kind of experiment: Inhibition of ocular permeability in streptozotocin-induced diabetic Sprague-Dawley rat at 10 mg/kg, po administered for 2 weeks after streptozotocin-challenge measured 24 hrs after final administration of compound. Set-up: dose 10 mg/kg. Particulars: Eye. The format is functional, organism-based.

Structures are written as SMILES. Calls of active or inactive are those of the source. The rule behind the calls is not given here.

Consider `CC(=O)Nc1nc(CCc2ccc(-c3c[nH]c(N)n3)cc2)cs1`, for which the IC50 in test [1] was 0.15 µM; in test [2], 13 µM.

In the case of `Cn1c(N)nc2ccccc21`, the IC50 in test [1] is 80 µM; in test [2], above 100 µM.

With `Cc1cccc2[nH]c(N)nc12`, the half-inhibitory concentration (IC50) in test [1] was 1 µM; in test [2], above 100 µM.

With `CC(=O)Nc1nc(CCc2ccc(CCc3c[nH]c(N)n3)cc2)cs1`, the half-inhibitory concentration (IC50) worked out at 0.018 µM in test [1] and 2.2 µM in test [2].

With `c1ccc(NC2=NCCN2)cc1`, the concentration for half-maximal inhibition (IC50) in test [1] and in test [2] was above 100 µM throughout.

With `CC(=O)Nc1nc(CCc2ccc(Cc3c[nH]c(N)n3)cc2)cs1`, the inhibition entry in test [3] and in test [8] was “Active” each time. Besides, the Ratio IC50 in test [4] and in test [6] was above 580 throughout. For the same molecule, the IC50 was 11 µM in test [5], 0.0051 µM in test [1], above 100 µM in test [7] and 0.019 µM in test [2].

Take `Nc1nc2ccccc2[nH]1`: the results for the IC50 in test [1] and in test [2] were 1 µM and 4.1 µM, respectively.

Consider `Nc1ncc[nH]1`, for which the concentration for half-maximal inhibition (IC50) in test [1] was 90 µM; in test [2], above 100 µM.

Consider `Nc1nc(Cc2ccccc2)c[nH]1`, for which the figures for the IC50 in test [1] and in test [2] were 0.42 µM and 32 µM, respectively.

In the case of `c1ccc2[nH]cnc2c1` [BENZIMIDAZOLE], the IC50 in test [1] and in test [2] was above 100 µM each time.

For the molecule `Nc1cc2ccccc2[nH]1`, the half-inhibitory concentration (IC50) in test [1] was 63 µM; in test [2], above 100 µM.

Turning to `N=C(N)Nc1ccccc1` [PHENYLGUANIDINE], the figures for the IC50 in test [1] and in test [2] were 78 µM and above 100 µM, respectively.

With `Cc1ccc2nc(N)[nH]c2c1`, the IC50 is 9.3 µM in test [1] and above 100 µM in test [2].

Take `CC(=O)Nc1nc(CCc2ccc(NC(=N)N)cc2)cs1`: the half-maximal inhibitory concentration (IC50) in test [5] was 60 µM; in test [7], above 100 µM.

For `Nc1nc(-c2ccccc2)c[nH]1`, the IC50 in test [1] is 44 µM; in test [2] it was above 100 µM.

For `NCc1nc2ccccc2[nH]1`, the IC50 in test [1] and in test [2] was above 100 µM in each case.

With `NC1=NCCN1c1ccccc1`, the IC50 in test [1] and in test [2] was above 100 µM each time.

For the molecule `Nc1ncc(CCc2ccccc2)[nH]1`, the IC50 was 4.8 µM in test [1] and above 100 µM in test [2].

By IC50 is commonly meant the concentration that gives 50% inhibition.

These data come from ChEMBL document CHEMBL2390878, “Novel 1H-imidazol-2-amine derivatives as potent and orally active vascular adhesion protein-1 (VAP-1) inhibitors for diabetic macular edema treatment” (Bioorg Med Chem, 2013).
